Assay results from patent US20240000948A1, “METHODS FOR TREATING EYE DISEASES USING LIPID BINDING PROTEIN-BASED COMPLEXES” (ABIONYX PHARMA SA, priority 2020, published 2024).
Read-outs that look alike come from different tables or passages of the source.

Legend:
eyes of albino rabbits = assay type: in vivo; conditions: for ocular tolerance: albino rabbits, CER-001 8 mg/ml (protein weight basis)
[1] = tested on: vision impairment related to LCAT deficiency (ocular lipid deposits); assay: CER-001 therapy for LCAT deficiency-related vision impairment; assay type: in vivo, human
Protocol: A subject with LCAT deficiency and having vision impairment related to the subject's LCAT deficiency (said vision impairment being due to ocular lipid deposits) was administered CER-001 according to a treatment regimen comprising an induction regimen, a consolidation regimen, and a maintenance regimen.
Prior to treatment with CER-001, the subject had ocular lipid deposits presenting as white corneal ring opacities. The subject had normal visual acuity but visual blur, especially at night. […] Next-generation sequencing confirmed the subject as compound-heterozygous for two LCAT gene variations, but none in the ABCA1 or APOA1 genes. The first allele, motherly inherited, is an exon-5 (c.605T>C) missense mutation p.(Ile202Thr), previously well-established as familial LCAT deficiency (FLD)-causing in Europe. The paternal allele (c.154+5G>C), was novel and absent from general referral population databases. It alters a highly evolutionary-conserved residue of intron-1 donor splice-site, thereby potentially altering exon-1 mRNA-splicing and creating a cryptic acceptor splice-site at position c.154+15. […]
The induction regimen comprised nine doses of CER-001 administered over three weeks. The dose of CER-001 administered in the […] regimen was 10 mg/kg, calculated based upon the amount of ApoA-I in the CER-001 administered and the weight of the subject.
Following the induction regimen, the subject was administered CER-001 according to a consolidation regimen comprising seven doses of CER-001 administered over four weeks. The dose of CER-001 administered in the […] regimen was 10 mg/kg, calculated based upon the amount of ApoA-I in the CER-001 administered and the weight of the subject.
Following the consolidation regimen, the subject was administered CER-001 according to a maintenance regimen comprising once a week administration of CER-001 for three weeks. The dose of CER-001 administered in the maintenance regimen was 10 mg/kg calculated based upon the amount of ApoA-I in the CER-001 to be administered and the weight of the subject. […]

[2] = CER-001 as carrier for ophthalmic drugs: appearance of samples after thermal cycling; assay type: physicochemical
Protocol: (§1) A solution of CER-001 was mixed with azithromycin to provide a final azithromycin concentration of 10 mg/ml and subjected to five heating and cooling cycles from 37° C. to 55° C. to promote complexation of azithromycin to CER-001. For controls, a sample of CER-001 without added azithromycin and a sample of azithromycin at a concentration of 10 mg/ml in phosphate buffered saline (PBS) were similarly subjected to five heating and cooling cycles from 37° C. to 55° C.
as §1, with “spironolactone” for “azithromycin”, “1.5” for “10”
as §1, with “cyclosporine” for “azithromycin”, “1” for “10”

[3] = tested on: endotoxin-induced uveitis (severe inflammation); assay type: in vivo; conditions: albino rabbits
Protocol: CER-001 vehicle and Solu-Medrol®, an injectable formulation containing the anti-inflammatory glucocorticoid methylprednisolone sodium succinate, were included as controls. Tolerance was assessed by the McDonald-Shadduck scoring system (see, Eaton et al., Journal of Ocular Pharmacology and Therapeutics 33(10):718-734) 6 and 24 hours after administration. Cell infiltration and protein content in the aqueous humor were measured 24 hours after administration.

CER-001: lipoprotein complex of ApoA-I and phospholipids, 1:2.7 lipoprotein weight:total phospholipid weight ratio, SM:DPPG weight ratio 97:3
ocular tolerance (eyes of albino rabbits; repeated topical administration of up to 8 drops): No tolerance issues were observed | ocular tolerance (eyes of albino rabbits; single intravitreal administration): No tolerance issues were observed | ocular tolerance (statement referring to Examples 3 and 4) (eyes of albino rabbits; even with repeated administrations): good ocular tolerance | visual blur at the end of the follow-up period ([1]; end of 3 months off-treatment follow-up): did not recur | effect of administration on vision ([1]; one subject with LCAT deficiency, IV infusion 10 mg/kg, later 20 mg/kg, 5 months treatment): normalization of vision | subject's vision during treatment ([1]; one subject with LCAT deficiency, IV infusion 10 mg/kg, later 20 mg/kg, induction, consolidation, maintenance, 5 months treatment): improved during the course of treatment | appearance of sample following the heating and cooling cycles ([2]; CER-001 without added drug, five heating and cooling cycles from 37° C. to 55° C.): remained clear | complexation with ophthalmic drugs (summary of Example 1) ([2]; thermal cycling 37° C. to 55° C.): can complex with azithromycin, spironolactone, dexamethasone palmitate, and cyclosporine | cell infiltration in the aqueous humor ([3]; 24 hours after administration, FIG. 3A): positive effect | protein in the aqueous humor ([3]; 24 hours after administration, FIG. 3B): positive effect | tolerance (McDonald-Shadduck scoring system) ([3]; single intravitreal administration, including 8 mg/ml, 6 and 24 hours, FIGS. 2A-2C): induced significant tolerance

CC[C@H]1OC(=O)[C@H](C)[C@@H](O[C@H]2C[C@@](C)(OC)[C@@H](O)[C@H](C)O2)[C@H](C)[C@@H](O[C@@H]2O[C@H](C)C[C@H](N(C)C)[C@H]2O)[C@](C)(O)C[C@@H](C)CN(C)[C@H](C)[C@@H](O)[C@]1(C)O [azithromycin, reference compound]
appearance of sample following the heating and cooling cycles ([2]; azithromycin 10 mg/ml in PBS, five cycles 37° C. to 55° C., FIG. 1A): contained numerous crystals in the liquid and on the glass tube

CC(=O)S[C@@H]1CC2=CC(=O)CC[C@]2(C)[C@H]2CC[C@@]3(C)[C@@H](CC[C@@]34CCC(=O)O4)[C@H]12 [spironolactone, reference compound]
appearance of sample following the heating and cooling cycles ([2]; spironolactone 1.5 mg/ml in PBS, five cycles 37° C. to 55° C., FIG. 1B): contained numerous crystals in the liquid, on the glass tube, and above the meniscus
